The text below walks through data of patent US20230108906A1, “SUBSTITUTED BICYCLIC AND TRICYCLIC UREAS AND AMIDES, ANALOGUES THEREOF, AND METHODS USING SAME” (Arbutus Biopharma Corporation, priority 2019, published 2023).

Each structure is given as a SMILES string.

In the first test the test system is HBV rcDNA in HepDE19 cells. Description: HepDE19 assay with bDNA quantitation of HBV rcDNA. It counts as cell-based, hepatitis B virus (HBV). Conditions: Hepatitis B virus, HepDE19, 168 h, inhibition of rcDNA formation in HepDE19 cells (HepG2 derived), Tet-free medium, 7 day incubation, Quantigene 2.0 bDNA readout, top concentration 25 μM; read-out: DE-19bDNA EC50. An outline of the steps:
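HepDE19 cells (HepG2-derived, Tet-regulated HBV) switched to Tet-free medium, then treated 7 days at 37 °C with compound, 8-point titration from 25 μM, 0.5% DMSO. rcDNA quantified by bDNA with HBV probes; EC50/EC90 via 4-parameter fit. Viability (CC50) by CellTiter-Glo ATP on 5,000 cells/well after 4 days.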
In the case of `CC(C)CN(C(=O)Nc1ccc(F)c(Cl)c1)C1CCCc2[nH]c(=O)cc(C(F)(F)F)c21` (stereo not drawn) [Compound 1, 3-(3-Chloro-4-fluorophenyl)-1-isobutyl-1-(2-oxo-4-(trifluoromethyl)-1,2,5,6,7,8-hexahydroquinolin-5-yl)urea], the EC50 (as a rule, the concentration needed to bring the measured effect to its halfway point) was 520 nM.
On the same count and under the same terms, the result for `CN(C(=O)Nc1ccc(F)c(Cl)c1)C1CCCc2[nH]c(=O)cc(C(F)(F)F)c21` (stereo not drawn) [Compound 2, 3-(3-Chloro-4-fluorophenyl)-1-methyl-1-(2-oxo-4-(trifluoromethyl)-1,2,5,6,7,8-hexahydroquinolin-5-yl)urea] reads 1500 nM.
On to `O=C(Nc1ccc(F)c(Cl)c1)N(CCCO)C1CCCc2[nH]c(=O)cc(C(F)(F)F)c21` (stereo not drawn) [Compound 3, 3-(3-Chloro-4-fluorophenyl)-1-(3-hydroxypropyl)-1-(2-oxo-4-(trifluoromethyl)-1,2,5,6,7,8-hexahydroquinolin-5-yl)urea], for which the EC50 is 1700 nM.
On the same count and under the same terms, the result for `CC(C)CN(C(=O)Nc1ccc(F)c(Cl)c1)C1CCc2[nH]c(=O)cc(C(F)(F)F)c21` (stereo not drawn) [Compound 4, 3-(3-Chloro-4-fluorophenyl)-1-isobutyl-1-(2-oxo-4-(trifluoromethyl)-2,5,6,7-tetrahydro-1H-cyclopenta[b]pyridin-5-yl)urea] reads 910 nM; that for `CC(C)CN(C(=O)Nc1ccc(F)c(F)c1)C1CCc2[nH]c(=O)cc(C(F)(F)F)c21` (stereo not drawn) [Compound 5, 3-(3,4-Difluorophenyl)-1-isobutyl-1-(2-oxo-4-(trifluoromethyl)-2,5,6,7-tetrahydro-1H-cyclopenta[b]pyridin-5-yl)urea], 1100 nM.
Take `O=C(Nc1ccc(F)c(Cl)c1)N(CCCO)C1CCCc2[nH]c(=O)c3ccccc3c21` (stereo not drawn) [Compound 7, 3-(3-Chloro-4-fluorophenyl)-1-(3-hydroxypropyl)-1-(6-oxo-1,2,3,4,5,6-hexahydrophenanthridin-1-yl)urea]: the EC50 stood at 750 nM.
Same read-out and setting: then `CC(C)CN(C(=O)Nc1ccc(F)c(Cl)c1)C1CCCc2[nH]c(=O)c3ccccc3c21` (stereo not drawn) [Compound 8, 3-(3-Chloro-4-fluorophenyl)-1-isobutyl-1-(6-oxo-1,2,3,4,5,6-hexahydrophenanthridin-1-yl)urea], with 470 nM; and `CN(C(=O)Nc1ccc(F)c(Cl)c1)C1CCCc2[nH]c(=O)c3cc(F)ccc3c21` (stereo not drawn) [Compound 9, 3-(3-Chloro-4-fluorophenyl)-1-(8-fluoro-6-oxo-1,2,3,4,5,6-hexahydrophenanthridin-1-yl)-1-methylurea], with 30 nM.
As for `CC(C)CN(C(=O)Nc1ccc(F)c(Cl)c1)C1CCCc2[nH]c(=O)c3cc(F)ccc3c21` (stereo not drawn) [Compound 10, 3-(3-Chloro-4-fluorophenyl)-1-(8-fluoro-6-oxo-1,2,3,4,5,6-hexahydrophenanthridin-1-yl)-1-isobutylurea], the EC50 is 60 nM.
Still for that read-out and setting: then `O=C(Nc1ccc(F)c(Cl)c1)N(CCCO)C1CCCc2[nH]c(=O)c3cc(F)ccc3c21` (stereo not drawn) [Compound 11, 3-(3-Chloro-4-fluorophenyl)-1-(8-fluoro-6-oxo-1,2,3,4,5,6-hexahydrophenanthridin-1-yl)-1-(3-hydroxypropyl)urea], with 60 nM; and `CN(C(=O)Nc1ccc(F)c(Cl)c1)C1CCc2[nH]c(=O)c3ccccc3c21` (stereo not drawn) [Compound 12, 3-(3-Chloro-4-fluorophenyl)-1-methyl-1-(5-oxo-2,3,4,5-tetrahydro-1H-cyclopenta[c]isoquinolin-1-yl)urea], with 90 nM.
As to `CC(C)CN(C(=O)Nc1ccc(F)c(Cl)c1)C1CCc2[nH]c(=O)c3ccccc3c21` (stereo not drawn) [Compound 13, 3-(3-Chloro-4-fluorophenyl)-1-isobutyl-1-(5-oxo-2,3,4,5-tetrahydro-1H-cyclopenta[c]isoquinolin-1-yl)urea], the EC50 amounted to 1300 nM.
The same measure, in the same setting: then `O=C(Nc1ccc(F)c(Cl)c1)N(CCCO)C1CCc2[nH]c(=O)c3ccccc3c21` (stereo not drawn) [Compound 14, 3-(3-Chloro-4-fluorophenyl)-1-(3-hydroxypropyl)-1-(5-oxo-2,3,4,5-tetrahydro-1H-cyclopenta[c]isoquinolin-1-yl)urea], with 100 nM; and `CN(C(=O)Nc1ccc(F)cc1)C1CCCc2[nH]c(=O)c3cc(F)c(F)cc3c21` (stereo not drawn) [Compound 19, 1-(8,9-Difluoro-6-oxo-1,2,3,4,5,6-hexahydrophenanthridin-1-yl)-3-(4-fluorophenyl)-1-methylurea], with 160 nM; and `CN(C(=O)Nc1ccc(F)c(Cl)c1)C1CCCc2[nH]c(=O)c3cc(F)cc(F)c3c21` (stereo not drawn) [Compound 20, 3-(3-Chloro-4-fluorophenyl)-1-(8,10-difluoro-6-oxo-1,2,3,4,5,6-hexahydrophenanthridin-1-yl)-1-methylurea], with 510 nM.
`CN(C(=O)Nc1ccc(F)c(Cl)c1)C1CCCCc2[nH]c(=O)c3ccccc3c21` (stereo not drawn) [Compound 21, 3-(3-Chloro-4-fluorophenyl)-1-methyl-1-(5-oxo-6,7,8,9,10,11-hexahydro-5H-cyclohepta[c]isoquinolin-11-yl)urea]: the EC50 was 150 nM.
Consider `O=C(Nc1ccc(F)c(Cl)c1)N(CCCO)C1CCCCc2[nH]c(=O)c3ccccc3c21` (stereo not drawn) [Compound 22, 3-(3-Chloro-4-fluorophenyl)-1-(3-hydroxypropyl)-1-(5-oxo-6,7,8,9,10,11-hexahydro-5H-cyclohepta[c]isoquinolin-11-yl)urea], for which the concentration giving a half-maximal response (EC50) stood at 600 nM.
With `CN(C(=O)Nc1ccc(F)c(Cl)c1)C1COCc2[nH]c(=O)c3cc(F)cc(F)c3c21` (stereo not drawn) [Compound 25, 3-(3-Chloro-4-fluorophenyl)-1-(8,10-difluoro-6-oxo-1,4,5,6-tetrahydro-2H-pyrano[3,4-c]isoquinolin-1-yl)-1-methylurea], the EC50 turned out to be 290 nM.
As to `CN(C(=O)Nc1ccc(F)c(Cl)c1)C1CC(C)(C)Cc2[nH]c(=O)c3ccccc3c21` (stereo not drawn) [Compound 27, 3-(3-Chloro-4-fluorophenyl)-1-(3,3-dimethyl-6-oxo-1,2,3,4,5,6-hexahydrophenanthridin-1-yl)-1-methylurea], the EC50 was determined as 12000 nM.
Same read-out and setting: then `CN(C(=O)Nc1ccc(F)c(Cl)c1)C1CCCc2[nH]c(=O)c3c(F)c(F)ccc3c21` (stereo not drawn) [Compound 28, 3-(3-Chloro-4-fluorophenyl)-1-(7,8-difluoro-6-oxo-1,2,3,4,5,6-hexahydrophenanthridin-1-yl)-1-methylurea], with 440 nM.
Turning to `CN(C(=O)Nc1cc(F)cc(Cl)c1)C1COCc2[nH]c(=O)c3ccccc3c21` (stereo not drawn) [Compound 29, 3-(3-Chloro-5-fluorophenyl)-1-methyl-1-(6-oxo-1,4,5,6-tetrahydro-2H-pyrano[3,4-c]isoquinolin-1-yl)urea], the concentration for a half-maximal effect (EC50) was 120 nM.

The test is the same for the next values; noted with them: inhibition of rcDNA formation in HepDE19 cells (HepG2 derived), Tet-free medium, 7 day incubation, Quantigene 2.0 bDNA readout, top concentration 25 μM; read-out: DE-19bDNA EC50.
As for `CN(C(=O)Nc1ccc(F)c(C(F)F)c1)C1COCc2nc(NCCO)c3cc(F)c(F)cc3c21` (single isomer, unassigned) [Compound 238, 1-(8,9-Difluoro-6-((2-hydroxyethyl)amino)-1,4-dihydro-2H-pyrano[3,4-c]isoquinolin-1-yl)-3-(3-(difluoromethyl)-4-fluorophenyl)-1-methylurea], the EC50 worked out at 20 nM.
The same measure, in the same setting: the result for `CNc1nc2c(c3cc(F)c(F)cc13)C(N(C)C(=O)Nc1ccc(F)c(Cl)c1)COC2` (single isomer, unassigned) [Compound 241, 3-(3-Chloro-4-fluorophenyl)-1-(8,9-difluoro-6-(methylamino)-1,4-dihydro-2H-pyrano[3,4-c]isoquinolin-1-yl)-1-methylurea] reads 2380 nM; that for `CNc1nc2c(c3cc(F)c(F)cc13)C(N(C)C(=O)Nc1ccc(F)c(Cl)c1)COC2` (single isomer, unassigned) [Compound 242, 3-(3-Chloro-4-fluorophenyl)-1-(8,9-difluoro-6-(methylamino)-1,4-dihydro-2H-pyrano[3,4-c]isoquinolin-1-yl)-1-methylurea], 20 nM; that for `CN(C(=O)Nc1ccc(F)c(Cl)c1)C1COCc2nc(NCCO)c3cc(F)c(F)cc3c21` (single isomer, unassigned) [Compound 245, 3-(3-Chloro-4-fluorophenyl)-1-(8,9-difluoro-6-((2-hydroxyethyl)amino)-1,4-dihydro-2H-pyrano[3,4-c]isoquinolin-1-yl)-1-methylurea], 4200 nM.
As for `CN(C(=O)Nc1ccc(F)c(Cl)c1)C1COCc2nc(NCCO)c3cc(F)c(F)cc3c21` (single isomer, unassigned) [Compound 246, 3-(3-Chloro-4-fluorophenyl)-1-(8,9-difluoro-6-((2-hydroxyethyl)amino)-1,4-dihydro-2H-pyrano[3,4-c]isoquinolin-1-yl)-1-methylurea], the EC50 stood at 20 nM.
Same read-out and setting: then `CN(C(=O)Nc1ccc(F)c(C(F)F)c1)C1COCc2nc(NCCN)c3cc(F)c(F)cc3c21` (single isomer, unassigned) [Compound 247, 1-(6-((2-Aminoethyl)amino)-8,9-difluoro-1,4-dihydro-2H-pyrano[3,4-c]isoquinolin-1-yl)-3-(3-(difluoromethyl)-4-fluorophenyl)-1-methylurea], with 80 nM; and `CN(C(=O)Nc1ccc(F)c(C(F)F)c1)C1COCc2nc(NCCN)c3cc(F)c(F)cc3c21` (single isomer, unassigned) [Compound 248, 1-(6-((2-Aminoethyl)amino)-8,9-difluoro-1,4-dihydro-2H-pyrano[3,4-c]isoquinolin-1-yl)-3-(3-(difluoromethyl)-4-fluorophenyl)-1-methylurea], with 3200 nM.
The same measure, in the same setting: the result for `CN(C(=O)Nc1ccc(F)c(Cl)c1)C1COCc2nc(NCCN)c3cc(F)c(F)cc3c21` (single isomer, unassigned) [Compound 249] reads 8300 nM.
`CN(C(=O)Nc1ccc(F)c(Cl)c1)C1COCc2nc(NCCN)c3cc(F)c(F)cc3c21` (single isomer, unassigned) [Compound 250]: the EC50 amounted to 270 nM.
